Results on four molecules are retold here after patent publication US20240065261A1, “PENETRATING CRYOPROTECTION AGENTS AND METHODS OF MAKING AND USING SAME” (The Research Foundation for The State University of New York, priority 2020, published 2024).

The test system of data set [1] is 3T3 cells. Kind of data set: Cytotoxicity by CCK-8 kit, Example 3. The format is cell-based. To be noted: 48 hours. The method, then: Cytotoxicity: Cytotoxicity of EGL-3Pro and EGL-3Phe were tested by CCK-8 kit on 3T3 cells after incubating for 48 hours at different concentrations.
The nature of data set [2]: Water solubility. The format is physicochemical. To be noted: pH 7.4, aqueous buffer.
Data set [3] concerns 3T3 cells. Kind of data set: Cryopreservation, post-thaw recovery rate, Example 3. The format is cell-based. To be noted: frozen −80° C. in medium with 400 mM trehalose. The method, then:
Cryopreservation: The cryopreservation effects of EGL-3Pro and EGL-3Phe were tested on 3T3 cells. The cells were incubated with 5 mM or 10 mM EGL-3Pro or 0.5 mM EGL-3Phe or medium only (two control groups) for 72 hours. After incubation, the cells were detached by treating […] pelleted by centrifuging (200×g). The cells were then resuspended in medium with 400 mM trehalose or 5% DMSO (for control 2 group) in cryovials and a small portion of cell suspension were used for counting pre-freeze cell number. The vials were directly put in −80° C. freezer and stored for at least 3 days. The cells were thawed in 37° C. water bath until ice melt, and resuspended in 10 mL fresh medium and pelleted by centrifuging (200×g). The cells were then resuspended in 1 mL fresh medium and counted by cell counter. The recovery rate was obtained by dividing post-thaw lived cell number by pre-freeze lived cell number.

Data set [4] relates to NIH-3T3 cells. Kind of data set: Live/dead fluorescence microscopy of post-thaw cells (calcein-AM / ethidium homodimer-1). It is filed as cell-based. To be noted: 24 h post-thaw; incubated with 10 mM for 48 h, frozen in media with 400 mM trehalose (FIG. 14). The method, then: DIC and Fluorescence images capturing. NIH/3T3 cells were treated as the same as for cryopreservation experiment and were thawed in a 37° C. water bath until ice melt. Cells in each vial were then pelleted (200×g, 5 min), re-suspended in 1 mL fresh growth medium and plated into 96 well plate and grown for 24 hours. Each well was washed with sterile PBS (100 μL). Sterile PBS (200 μL) containing 2 μM calcein-AM and 4 μM ethidium homodimer-1 (EthD-1) was then added to each well. The 96-well plate was then incubated in a CO2 incubator at 37° C. for 30 min. Fresh cells without freezing were plated at similar density in 96-well plate as comparison. DIC and fluorescence microscopy images were captured at 509 and 580 nm on Axioplan 2 fluorescent microscope (Zeiss [Carl Zeiss], Thornwood, NY) with an Axiocam MRm camera (Zeiss). Axiovision 4 software (Zeiss) was used for image acquisition. Digital images were processed with ImageJ (imagej.nih.gov/ij/).

The subject of data set [5] is NIH-3T3 cells. Kind of data set: Cell size measurement after incubation with diesters. It is filed as cell-based. To be noted: 10 mM, 48 h incubation (FIG. 11). The method, then:
Incubation (for cell size measurement). NIH/3T3 cells were seeded into 6-well plates at a density of 5×10^4 cells/mL (2 mL/well), allowed to adhere overnight and then incubated with different sample solutions (2 mL) for 48 hours at 37° C. under 5% CO2. Control cells were incubated with culture medium.
Cell size measurement. At the end of the incubation, the cells were rinsed with PBS (1 mL) and detached by 0.25% trypsin-EDTA (1 mL). The cells were pelleted (200×g, 5 min) and resuspended in PBS (1 mL). The average cell size of the cell suspension was then obtained with a DeNovix Celldrop cell counter. Bright field/counted image and histogram for one count were attached as an example (FIG. 19). Average cell diameter and statistical analysis were obtained from the histograms.

The test system of data set [6] is NIH-3T3 cells. Kind of data set: Cell growth curve. The format is cell-based. To be noted: 10 mM, incubated for up to 72 hrs (FIG. 17). The method, then:
Cell growth curve. NIH/3T3 cells were seeded into 6-well plates at a density of 5×10^4 cells/mL (2 mL/well), allowed to adhere overnight and then incubated with different sample solutions (2 mL) up to 72 hours at 37° C. under 5% CO2. Control cells were incubated with culture medium. After certain time incubation, cells were rinsed with PBS (1 mL), detached by 0.25% trypsin-EDTA (1 mL), pelleted (200×g, 5 min) and resuspended in PBS (1 mL). The cell number were obtained by a DeNovix Celldrop cell counter. The 0 hour was set as the time point just after overnight adhering.

The subject of data set [7] is NIH-3T3 cells. Kind of data set: Post-thaw total cell recovery of cryopreserved cells (trypan blue exclusion). The format is cell-based. To be noted: for Total recovery values compared with cells frozen in media containing 5% DMSO: incubated with 10 mM; for Post-thaw recovery (%) 0-hr / Post-thaw recovery (%) 24-hr / Post-thaw recovery (%) 48-hr: incubated with 10 mM for 48 h, frozen −80° C. 72 h in media with 400 mM trehalose, ±SEM. The method, then: The delivery of sugar alcohols into cells makes it possible to turn these molecules into intracellular CPAs. […] Total post-thaw cell recovery, defined as the ratio (%) of post-thaw live cells to the number of initially frozen live cells, which provides a more accurate measure of cryoprotective outcome than cell viability, was used to assess the cryoprotective effects of the diesters.
Systematic studies were then performed by incubating the cells (1) with each of diesters 1-4 (10 mM), (2) with unmodified sorbitol, mannitol, xylitol, or erythritol (10 mM), and (3) in medium without any of the diesters or sugar alcohols, at 37° C. for 48 h. The cells treated with diesters 1-4 and the four sugar alcohols were then transferred to freezing media consisting of DMEM, 10% FBS and 400 mM trehalose. The cells incubated with only the medium were divided into two portions, one being directly transferred to the freezing medium containing 400 mM trehalose (control 1) and the other being placed in a different freezing medium consisting of DMEM, 10% FBS and 5% DMSO but without trehalose (control 2). After being frozen at −80° C. for 72 h, the cells were thawed in a warm water bath at 37° C. until ice melted. The post-thaw cells were either immediately analyzed for their survival or were cultured in growth media (DMEM with 10% FBS) for 24 h and 48 h before being analyzed.
Incubation (for cryopreservation). NIH/3T3 cells were seeded into cell culture treated plates (100 mm) at a density of 2×10^4 cells/mL (10 mL/plate), allowed to adhere overnight and then incubated with different sample solutions (10 mL) for 48 hours at 37° C. under 5% CO2. Control cells were incubated with growth medium.
Cryopreservation. At the end of the incubation, the cells were rinsed with PBS (2 mL) and detached using 0.25% trypsin-EDTA (3 mL). The cells were pelleted (200×g, 5 min) and resuspended in growth medium with 400 mM trehalose except for the control-2 group. For control-2 group, cells were resuspended in growth medium with 5% DMSO (v/v). An aliquot of cells of each group was then removed for counting by a DeNovix Celldrop cell counter to obtain prefreeze number of viable cells. The remaining cell suspension was transferred into a 2 mL cryogenic vial. The vials were directly transferred to −80° C. freezer without controlling cooling rate and stored at −80° C. freezer for 3 days. To thaw, cryogenic vials were removed from −80° C. freezer and suspended in a 37° C. water bath until ice melt. To the contents of each vial 1 mL growth medium was added and centrifuged (200×g , 5 min). The supernatant was discarded and cell pellet was resuspended in 1 mL growth cell medium. An aliquot of cell suspension of each group was then removed for counting with a DeNovix Celldrop cell counter to obtain the number of viable cells at 0-hr post-thaw. The remaining cell suspension was split equally and resuspended into two cell culture treated plates (100 mm) with 10 mL growth medium in each plate. The plates were then maintained for either 24 hours or 48 hours at 37° C. under 5% CO2. After being cultured for either 24 hours or 48 hours, the cells were rinsed with PBS (2 mL) and detached using 0.25% trypsin-EDTA (3 mL). The cells were pelleted (200×g, 5 min) and resuspended in growth medium. The cell suspension was then analyzed by DeNovix Celldrop cell counter to obtain number of viable cells at either 24-hr or 48-hr post-thaw.
Trypan Blue Exclusion Assay. For all time points, a sample of cells was mixed 1:1 in 0.4% trypan blue and counted using a DeNovix Celldrop. Cell recovery was calculated as the ratio of viable cells to the number of cells initially frozen.

Data set [8] relates to NIH-3T3 cells. Kind of data set: Post-thaw viability of cryopreserved NIH-3T3 cells (CCK-8), Example 1. To be noted: Table 3, frozen −80° C. 72 hours, 400 mM trehalose, 10% DMSO set as 100%. It is filed as cell-based. The method, then:
Cryopreservation protocol. […] Discarded 95% of the old media and added 0.5 mL new DMEM (pH=7.4) with 10% FBS and 400 mM trehalose (filtered with 0.22 μm filter) and re-suspended the cells. • Transferred the cell culture to cryo-tube and stored the tubes at −80° C. for 3 days. • Thawed the cells at 37° C. in a water bath until ice melted. • Counted the cell density in each cryo-tube with cell counter. • Re-cultured the cells in 96-well plate with fresh DMEM (PH=7.4) with 10% FBS. (while keeping cell density the approximately the same for each well). • Used CCK-8 kit to test the post-thaw viability after certain time.

Data set [9] relates to NIH-3T3 cells. Kind of data set: Post-thaw total cell recovery of cryopreserved cells (trypan blue exclusion). It is filed as cell-based. To be noted: incubated with 5 and 10 mM; frozen in media with 400 mM trehalose (FIG. 12).
Where [10] appears, read: incubated 36 hours at 5 mM without DMSO.
[11] abbreviates: incubated 36 hours at 10 mM without DMSO.

Values joined by “and” are separate entries in the source; they are usually repeats but may differ in a detail not shown here. Equal values may be shown once.

In the case of `N[C@@H](Cc1ccccc1)C(=O)OCC(COC(=O)[C@@H](N)Cc1ccccc1)OC(=O)[C@@H](N)Cc1ccccc1` [EGL-3Phe], the Cytotoxicity result in data set [1] (above 1 mM) is “apparent cytotoxicity”; in data set [1] (at 0.1 mM) it was “no toxicity”; in data set [1] (at 0.5 mM) it was “residual cytotoxicity”. Moreover, the solubility (in general, how much of the substance goes into solution per volume) in [2] is no more than 2 mM. In data set [3] (incubated with 0.5 mM for 72 hours), the “0-hour post thaw recovery (%)” value was 66.2 ± 10.1%.

Take `O=C(OCC(COC(=O)[C@@H]1CCCN1)OC(=O)[C@@H]1CCCN1)[C@@H]1CCCN1` [EGL-3Pro]: the Cytotoxicity entry in data set [1] (up to 10 mM) is recorded as “didn't show any toxicity”. Moreover, in data set [2], the solubility was no less than 10 mM. Further, the “0-hour post thaw recovery (%)” value is 50.1 ± 6.6% in data set [3] (incubated with 5 mM for 72 hours) and 65.3 ± 7.3% in data set [3] (incubated with 10 mM for 72 hours).

Turning to `CCC(=O)OC[C@@H](O)[C@@H](O)[C@H](O)[C@H](O)COC(=O)CC` [MannPr2], the “Post-thaw viability/recovery in fluorescence microscopy images” value in [4] is on record as “much higher recovery than those treated with mannitol or sorbitol”. For the same molecule, the “Average cell diameter relative to cells incubated with only the culture medium” value in [5] was “small but statistically significant increases”. In [6], the “Growth of cells relative to control” value is listed as “slightly suppressed”. In [7], the “Total recovery values compared with cells frozen in media containing 5% DMSO” value is listed as “the same as those seen with 5% DMSO”; the “Post-thaw recovery (%) 0-hr” value is 84% and 84.1 ± 3.3%; the “Post-thaw recovery (%) 24-hr” value was 73.6 ± 3.2%; the “Post-thaw recovery (%) 48-hr” value is 184% and 184.1 ± 14.2%.

Turning to `CCC(=O)OC[C@@H](O)[C@@H](O)[C@H](O)[C@@H](O)COC(=O)CC` [SorbPr2], in [8] (setting [10]), the “Post-thaw viability (%), 24 hours post thaw” value is on record as 94.5 ± 9.1% and the “Post-thaw viability (%), 48 hours post-thaw” value is recorded as 130.1 ± 6.8%. Also, in [8] (setting [11]), the “Post-thaw viability (%), 24 hours post thaw” value was found to be 128.9 ± 2.5% and the “Post-thaw viability (%), 48 hours post-thaw” value was 183.0 ± 2.9%. Further, in data set [4], the “Post-thaw viability/recovery in fluorescence microscopy images” value is reported as “much higher recovery than those treated with mannitol or sorbitol”. Besides, in data set [5], the “Average cell diameter relative to cells incubated with only the culture medium” value is “small but statistically significant increases”. For the same molecule, the “Post-thaw 0 h and 48 h total recovery rates compared with cells incubated only with the media” value in [9] is recorded as “above those of cells incubated only with the media”. Further, the “Growth of cells relative to control” value in data set [6] is recorded as “slightly suppressed”. In data set [7], the “Total recovery values compared with cells frozen in media containing 5% DMSO” value was “comparable to those obtained with cells frozen in media containing 5% DMSO”, the “Post-thaw recovery (%) 0-hr” value worked out at 72.4 ± 3.4%, the “Post-thaw recovery (%) 24-hr” value worked out at 65.2 ± 2.2% and the “Post-thaw recovery (%) 48-hr” value was 153.2 ± 8.0%.
